Test results published in patent US10385019B2, “Inhibitors of EGFR and methods of use thereof” (Dana-Farber Cancer Institute, Inc., priority 2015, dated 2019).

Molecular target: EGFR T790M/L858R Ba/F3 cell line (Homo sapiens, UniProt P00533, T790M/L858R, cells depend on it)
Test: Ba/F3 cell proliferation model
Type: cell-based, murine
Conditions: combined with cetuximab (% cetuximab, 1.0 μM drug concentration with 1.0 μg/mL cetuximab)
Excerpt: The selectivity between wild-type EGFR and EGFR containing one or more mutations as described herein can also be measured using cellular proliferation assays where cell proliferation is dependent on kinase activity. For example, murine Ba/F3 cells transfected with a suitable version of wild-type EGFR (such as VIII; containing a WT EGFR kinase domain), or Ba/F3 cells transfected with L858R/T790M, Del/T790M/L718Q, L858R/T790M/L718Q, L858R/T790M/C797S, Del/T790M/C797S, L858R/T790M/I941R, or Exon 19 deletion/T790M can be used.
Cell lines are plated in media. The compounds of the present disclosure are then serially diluted and transferred to the cells. Cell viability is measured via a luminescent readout. Data is analyzed by non-linear regression curve-fitting. […]
The EGFR mutant L858R, Del E746_A750, L858R/T790M, DelE746_A750/T790M, L858R/T790M/C797S and Del/T790M/C797S Ba/F3 cells have been previously described (Zhou, W., Ercan, D., Chen, L., Yun, C. H., Li, D., Capelletti, M., Cortot, A. B., Chirieac, L., Iacob, R. E., Padera, R., et al. “Novel mutant-selective EGFR kinase inhibitors against EGFR T790M,” Nature 462, (2009), 1070-1074). All cell lines were maintained in RPMI 1640 (Cellgro; Mediatech Inc., Herndon, Calif.) supplemented with 10% FBS 100 units/mL penicillin, 100 units/mL streptomycin, and 2 mM glutamine. L858R cells were maintained in ACL-4 media (Invitrogen, Carlsbad, Calif.) supplemented with 5% FBS, 100 units/mL penicillin, 100 units/mL streptomycin, and 2 mM glutamine. The EGFR I941R mutation was introduced via site directed mutagenesis using the Quick Change Site-Directed Mutagenesis kit (Stratagene; La Jolla, Calif.) according to the manufacturer's instructions. All constructs were confirmed by DNA sequencing. The constructs were shuttled into the retroviral vector JP 1540 using the BD Creator™ System (BD Biosciences). Ba/F3 cells were infected with retrovirus and according to standard protocols, as described previously (Zhou et al, Nature 2009). Stable clones were obtained by selection in puromycin (2 μg/ml).
Growth and inhibition of growth was assessed by MTS assay and was performed according to previously established methods (Zhou et al., Nature 2009). The MTS assay is a colorimetric method for determining the number of viable cells that is based on the bioreduction of MTS by cells to a formazan product that is soluble in cell culture medium and can be detected spectrophotometrically. Ba/F3 cells of different EGFR genotypes were exposed to treatment for 72 hours and the number of cells used per experiment determined empirically and has been previously established (Zhou et al., Nature 2009). All experimental points were set up in six wells and all experiments were repeated at least three times. […] The curves were fitted using a non-linear regression model with a sigmoidal dose response.
Inhibition data of an EGFR T790M/L858R Ba/F3 cell line.

EGFR T790M/L858R Ba/F3 cell line, sequence (P00533 whole entry T790M/L858R): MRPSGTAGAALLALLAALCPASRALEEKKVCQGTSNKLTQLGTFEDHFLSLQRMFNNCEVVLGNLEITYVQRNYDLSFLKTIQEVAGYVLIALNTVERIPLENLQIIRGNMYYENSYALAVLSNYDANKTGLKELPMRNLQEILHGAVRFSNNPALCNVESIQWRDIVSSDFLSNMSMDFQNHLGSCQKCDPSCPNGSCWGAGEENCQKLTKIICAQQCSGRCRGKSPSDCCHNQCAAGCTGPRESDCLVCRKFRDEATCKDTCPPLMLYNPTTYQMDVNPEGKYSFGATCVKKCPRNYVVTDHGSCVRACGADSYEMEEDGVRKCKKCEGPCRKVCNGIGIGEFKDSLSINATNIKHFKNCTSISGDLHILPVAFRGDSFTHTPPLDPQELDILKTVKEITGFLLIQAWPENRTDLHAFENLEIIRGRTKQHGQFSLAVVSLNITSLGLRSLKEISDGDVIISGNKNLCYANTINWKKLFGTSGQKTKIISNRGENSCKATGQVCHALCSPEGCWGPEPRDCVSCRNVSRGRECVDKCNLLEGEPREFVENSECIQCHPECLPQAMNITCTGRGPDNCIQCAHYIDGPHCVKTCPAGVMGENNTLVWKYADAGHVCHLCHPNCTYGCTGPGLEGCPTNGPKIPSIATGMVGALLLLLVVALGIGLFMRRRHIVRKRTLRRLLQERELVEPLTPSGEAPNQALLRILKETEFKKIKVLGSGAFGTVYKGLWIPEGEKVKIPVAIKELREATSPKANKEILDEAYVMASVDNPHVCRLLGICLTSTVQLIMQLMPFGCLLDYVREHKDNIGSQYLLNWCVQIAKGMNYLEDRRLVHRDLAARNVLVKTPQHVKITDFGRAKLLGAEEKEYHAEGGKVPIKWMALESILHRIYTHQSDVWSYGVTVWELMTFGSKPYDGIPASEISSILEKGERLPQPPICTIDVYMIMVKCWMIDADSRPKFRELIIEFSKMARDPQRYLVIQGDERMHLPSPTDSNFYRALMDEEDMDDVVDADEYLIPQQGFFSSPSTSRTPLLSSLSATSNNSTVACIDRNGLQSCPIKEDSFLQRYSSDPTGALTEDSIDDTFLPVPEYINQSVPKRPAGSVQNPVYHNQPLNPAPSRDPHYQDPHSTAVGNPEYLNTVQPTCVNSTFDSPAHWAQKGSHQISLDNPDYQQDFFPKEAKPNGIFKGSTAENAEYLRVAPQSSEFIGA

SMILES: O=C(Nc1nccs1)[C@@H](c1ccccc1)N1Cc2ccc(Nc3cccc(F)c3)cc2C1=O [Compound I-99, (R)-2-(6-((3-fluorophenyl)amino)-1-oxoisoindolin-2-yl)-2-phenyl-N-(thiazol-2-yl)acetamide]
- Activity (% inhibition): C (a % inhibition of between about 25% to about 50%)

SMILES: O=C(Nc1nccs1)[C@@H](c1ccccc1)N1Cc2cc(-c3ccc4[nH]ccc4c3)ccc2C1=O [Compound I-104, (R)-2-(5-(1H-indol-5-yl)-1-oxoisoindolin-2-yl)-2-phenyl-N-(thiazol-2-yl)acetamide]
- Activity (% inhibition): C (a % inhibition of between about 25% to about 50%)

SMILES: O=C(Nc1nccs1)[C@@H](c1ccccc1)N1Cc2ccc(-c3ccc(OC(F)(F)F)cc3)cc2C1=O [Compound I-74, (R)-2-(1-oxo-6-(4-(trifluoromethoxy)phenyl)isoindolin-2-yl)-2-phenyl-N-(thiazol-2-yl)acetamide]
- Activity (% inhibition): B (a % inhibition of between about 50% to about 75%)

SMILES: O=C(Nc1ncc(Br)s1)[C@H](Cc1ccccc1)N1Cc2ccccc2C1=O [Compound I-49, (S)-N-(5-bromothiazol-2-yl)-2-(1-oxoisoindolin-2-yl)-3-phenylpropanamide]
- Activity (% inhibition): A (a % inhibition of about 75%)

SMILES: O=C(Nc1nccs1)[C@@H](c1ccccc1)N1Cc2cc(Nc3cccc(F)c3)ccc2C1=O [Compound I-97, (R)-2-(5-((3-fluorophenyl)amino)-1-oxoisoindolin-2-yl)-2-phenyl-N-(thiazol-2-yl)acetamide]
- Activity (% inhibition): A (a % inhibition of about 75%)

SMILES: O=C(Nc1nccs1)[C@@H](c1ccccc1)N1Cc2cc(Nc3ccc(N4CCOCC4)cc3)ccc2C1=O [Compound I-94, (R)-2-(5-((4-morpholinophenyl)amino)-1-oxoisoindolin-2-yl)-2-phenyl-(thiazol-2-yl)acetamide]
- Activity (% inhibition): C (a % inhibition of between about 25% to about 50%)

SMILES: O=C(Nc1ncnc2[nH]ncc12)[C@@H](c1ccccc1)N1Cc2ccccc2C1=O [Compound I-33, (R)-2-(1-oxoisoindolin-2-yl)-2-phenyl-N-(1H-pyrazolo[3,4-d]pyrimidin-4-yl)acetamide]
- Activity (% inhibition): A (a % inhibition of about 75%)

SMILES: C[C@H](C(=O)Nc1nccs1)N1Cc2ccc(-c3ccc(N4CCN(C(=O)OC(C)(C)C)CC4)cc3)cc2C1=O [Compound I-117, tert-butyl (R)-4-(4-(3-oxo-2-(1-oxo-1-(thiazol-2-ylamino)propan-2-yl)isoindolin-5-yl)phenyl)piperazine-1-carboxylate]
- Activity (% inhibition): A (a % inhibition of about 75%)

SMILES: O=C(Nc1cc(C2CC2)n[nH]1)[C@@H](c1ccccc1)N1Cc2ccccc2C1=O [Compound I-26, (R)-N-(3-cyclopropyl-1H-pyrazol-5-yl)-2-(1-oxoisoindolin-2-yl)-2-phenylacetamide]
- Activity (% inhibition): A (a % inhibition of about 75%)

SMILES: CN(C(=O)[C@@H](c1ccccc1)N1Cc2ccccc2C1=O)c1nccs1 [Compound I-58, (R)-N-methyl-2-(1-oxoisoindolin-2-yl)-2-phenyl-N-(thiazol-2-yl)acetamide]
- Activity (% inhibition): B (a % inhibition of between about 50% to about 75%)

SMILES: O=C(O)c1ccc(-c2ccc3c(c2)C(=O)N([C@@H](C(=O)Nc2nccs2)c2ccccc2)C3)cc1 [Compound I-78, (R)-4-(3-oxo-2-(2-oxo-1-phenyl-2-(thiazol-2-ylamino)ethyl)isoindolin-5-yl)benzoic acid]
- Activity (% inhibition): A (a % inhibition of about 75%)

SMILES: O=C(Nc1nccs1)[C@@H](c1ccccc1)N1Cc2ccc(-c3ccsc3)cc2C1=O [Compound I-47, (R)-2-(1-oxo-6-(thiophen-3-yl)isoindolin-2-yl)-2-phenyl-N-(thiazol-2-yl)acetamide]
- Activity (% inhibition): B (a % inhibition of between about 50% to about 75%)

SMILES: C[C@H](NC(=O)[C@H](c1ccccc1)N1Cc2ccccc2C1=O)c1ccccc1 [Compound I-2, (S)-2-(1-oxoisoindolin-2-yl)-2-phenyl-N-((S)-1-phenylethyl)acetamide]
- Activity (% inhibition): A (a % inhibition of about 75%)

SMILES: O=C(Nc1cc(C(F)(F)F)n[nH]1)[C@@H](c1ccccc1)N1Cc2ccccc2C1=O [Compound I-30, (R)-2-(1-oxoisoindolin-2-yl)-2-phenyl-N-(3-(trifluoromethyl)-1H-pyrazol-5-yl)acetamide]
- Activity (% inhibition): A (a % inhibition of about 75%)

SMILES: Cc1cccc(C)c1NC(=O)[C@@H](c1ccccc1)N1Cc2ccccc2C1=O [Compound I-54, (R)-N-(2,6-dimethylphenyl)-2-(1-oxoisoindolin-2-yl)-2-phenylacetamide]
- Activity (% inhibition): A (a % inhibition of about 75%)

SMILES: COC(=O)c1cc(Br)ccc1N[C@H](C(=O)Nc1nccs1)c1ccccc1 [Compound I-107, methyl (S)-5-bromo-2-((2-oxo-1-phenyl-2-(thiazol-2-ylamino)ethyl)amino)benzoate]
- Activity (% inhibition): B (a % inhibition of between about 50% to about 75%)

SMILES: O=C(Nc1ncc[nH]1)[C@H](c1ccccc1)N1Cc2ccccc2C1=O [Compound I-35, (S)-N-(1H-imidazol-2-yl)-2-(1-oxoisoindolin-2-yl)-2-phenylacetamide]
- Activity (% inhibition): A (a % inhibition of about 75%)

SMILES: O=C(Nc1ncc[nH]1)[C@@H](c1ccccc1)N1Cc2ccc(-c3ccc4[nH]ccc4c3)cc2C1=O [Compound I-133, (R)-2-(6-(1H-indol-5-yl)-1-oxoisoindolin-2-yl)-N-(1H-imidazol-2-yl)-2-phenylacetamide]
- Activity (% inhibition): D (a % inhibition of between about 0% to about 25%)

SMILES: O=C(Nc1nc(CCCN2CCOCC2)cs1)[C@@H](c1ccccc1)N1Cc2ccccc2C1=O [Compound I-43, (R)-N-(4-(3-morpholinopropyl)thiazol-2-yl)-2-(1-oxoisoindolin-2-yl)-2-phenylacetamide]
- Activity (% inhibition): A (a % inhibition of about 75%)

SMILES: O=C(Nc1nccs1)[C@H](Cc1ccccc1)N1Cc2ccccc2C1=O [Compound I-45, (S)-2-(1-oxoisoindolin-2-yl)-3-phenyl-N-(thiazol-2-yl) propanamide]
- Activity (% inhibition): A (a % inhibition of about 75%)

SMILES: O=C(Nc1nccs1)[C@@H](c1ccccc1)N1Cc2ccc(-c3cn[nH]c3)cc2C1=O [Compound I-64, (R)-2-(1-oxo-6-(1H-pyrazol-4-yl)isoindolin-2-yl)-2-phenyl-N-(thiazol-2-yl)acetamide]
- Activity (% inhibition): B (a % inhibition of between about 50% to about 75%)

SMILES: CCOC(=O)c1csc(NC(=O)[C@@H](c2ccccc2)N2Cc3ccccc3C2=O)n1 [Compound I-4, ethyl (R)-2-(2-(1-oxoisoindolin-2-yl)-2-phenylacetamido) thiazole-4-carboxylate]
- Activity (% inhibition): A (a % inhibition of about 75%)

SMILES: CCOC(=O)c1csc(NC(=O)[C@H](Cc2ccccc2)N2Cc3ccccc3C2=O)n1 [Compound I-48, ethyl (S)-2-(2-(1-oxoisoindolin-2-yl)-3-phenylpropanamido) thiazole-4-carboxylate]
- Activity (% inhibition): A (a % inhibition of about 75%)

SMILES: O=C(Nc1nc(C(=O)N2CCC(N3CCOCC3)CC2)cs1)[C@@H](c1ccccc1)N1Cc2ccccc2C1=O [Compound I-24, (R)-N-(4-(4-morpholinopiperidine-1-carbonyl)thiazol-2-yl)-2-(1-oxoisoindolin-2-yl)-2-phenylacetamide]
- Activity (% inhibition): A (a % inhibition of about 75%)

SMILES: O=C(Nc1nccs1)[C@@H](c1ccccc1)N1Cc2ccc(-c3cccnc3)cc2C1=O [Compound I-60, (R)-2-(1-oxo-6-(pyridin-3-yl)isoindolin-2-yl)-2-phenyl-N-(thiazol-2-yl)acetamide]
- Activity (% inhibition): C (a % inhibition of between about 25% to about 50%)

SMILES: O=C(Nc1nncs1)[C@H](c1ccccc1)N1Cc2ccccc2C1=O [Compound I-42, (S)-2-(1-oxoisoindolin-2-yl)-2-phenyl-N-(1,3,4-thiadiazol-2-yl)acetamide]
- Activity (% inhibition): A (a % inhibition of about 75%)
